Data on four compounds can be found in ChEMBL document CHEMBL5715260, “Selectivity Literature for EUbOPEN Chemogenomic Library” (2024).

In experiment [1] the target is T1, Hepatocyte nuclear factor 4-alpha (Homo sapiens) (UniProt P41235).
T1 sequence (whole entry): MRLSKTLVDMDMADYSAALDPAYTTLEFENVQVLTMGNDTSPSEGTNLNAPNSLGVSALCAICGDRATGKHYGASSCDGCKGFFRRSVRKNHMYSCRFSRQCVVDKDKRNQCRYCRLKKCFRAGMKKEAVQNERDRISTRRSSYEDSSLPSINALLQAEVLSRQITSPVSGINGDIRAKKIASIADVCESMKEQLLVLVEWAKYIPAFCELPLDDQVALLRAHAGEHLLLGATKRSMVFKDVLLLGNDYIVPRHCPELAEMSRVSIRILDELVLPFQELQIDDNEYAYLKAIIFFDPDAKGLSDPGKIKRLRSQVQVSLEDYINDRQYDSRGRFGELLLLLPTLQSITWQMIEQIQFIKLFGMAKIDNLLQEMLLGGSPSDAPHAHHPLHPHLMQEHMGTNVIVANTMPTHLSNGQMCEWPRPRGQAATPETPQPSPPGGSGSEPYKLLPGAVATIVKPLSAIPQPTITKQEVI
Put plainly: Selectivity interaction (Reporter gene assay) EUB0000571a HNF4A. More on the design: recommended concentration 1 uM. On the technique in general: Reporter assays use an easily measured gene product as a stand-in for the process of interest.

Experiment [2] has as its target T2, Nuclear receptor subfamily 2 group C member 1 (Homo sapiens) (UniProt P13056).
T2 sequence (whole entry): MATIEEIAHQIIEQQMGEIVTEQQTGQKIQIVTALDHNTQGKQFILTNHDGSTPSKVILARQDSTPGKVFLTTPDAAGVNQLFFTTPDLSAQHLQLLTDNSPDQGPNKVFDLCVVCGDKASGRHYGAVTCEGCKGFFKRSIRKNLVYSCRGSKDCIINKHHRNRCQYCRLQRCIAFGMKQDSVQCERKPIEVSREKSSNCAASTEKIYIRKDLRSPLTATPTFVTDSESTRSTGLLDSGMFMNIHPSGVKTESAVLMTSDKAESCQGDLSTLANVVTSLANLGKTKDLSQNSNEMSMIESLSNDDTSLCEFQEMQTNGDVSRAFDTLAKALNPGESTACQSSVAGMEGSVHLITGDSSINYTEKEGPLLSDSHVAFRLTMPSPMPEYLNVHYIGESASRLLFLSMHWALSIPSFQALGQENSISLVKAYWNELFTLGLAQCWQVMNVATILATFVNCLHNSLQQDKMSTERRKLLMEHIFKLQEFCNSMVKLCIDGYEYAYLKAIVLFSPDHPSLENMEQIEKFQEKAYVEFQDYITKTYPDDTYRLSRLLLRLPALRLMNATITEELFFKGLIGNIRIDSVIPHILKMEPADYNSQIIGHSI
Put plainly: Selectivity interaction (Reporter gene assay) EUB0000571a NR2C1. Also on record: recommended concentration 1 uM.

The target of experiment [3] is Nuclear receptor subfamily 2 group E member 1 (Homo sapiens) (UniProt Q9Y466). Put plainly: Selectivity interaction (Reporter gene assay) EUB0000571a NR2E1. More on the design: recommended concentration 1 uM.
Sequence of Nuclear receptor subfamily 2 group E member 1 (Homo sapiens) (Q9Y466 whole entry): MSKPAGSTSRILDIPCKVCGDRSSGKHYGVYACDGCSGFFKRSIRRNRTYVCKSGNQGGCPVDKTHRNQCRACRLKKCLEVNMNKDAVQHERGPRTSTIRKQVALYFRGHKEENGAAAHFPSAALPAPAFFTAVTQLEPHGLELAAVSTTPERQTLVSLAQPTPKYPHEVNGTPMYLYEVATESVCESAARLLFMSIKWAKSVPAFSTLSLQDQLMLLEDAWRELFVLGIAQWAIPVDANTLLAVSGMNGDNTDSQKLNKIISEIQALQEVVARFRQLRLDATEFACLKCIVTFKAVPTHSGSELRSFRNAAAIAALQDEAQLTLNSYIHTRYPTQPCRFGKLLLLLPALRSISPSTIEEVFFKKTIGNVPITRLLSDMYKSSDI
The target in experiment [4] is Nuclear receptor subfamily 4immunitygroup A member 1 (Homo sapiens) (UniProt P22736). Put plainly: Selectivity interaction (Reporter gene assay) EUB0000571a NR4A1. Also on record: recommended concentration 1 uM.
Sequence of Nuclear receptor subfamily 4immunitygroup A member 1 (Homo sapiens) (P22736 whole entry): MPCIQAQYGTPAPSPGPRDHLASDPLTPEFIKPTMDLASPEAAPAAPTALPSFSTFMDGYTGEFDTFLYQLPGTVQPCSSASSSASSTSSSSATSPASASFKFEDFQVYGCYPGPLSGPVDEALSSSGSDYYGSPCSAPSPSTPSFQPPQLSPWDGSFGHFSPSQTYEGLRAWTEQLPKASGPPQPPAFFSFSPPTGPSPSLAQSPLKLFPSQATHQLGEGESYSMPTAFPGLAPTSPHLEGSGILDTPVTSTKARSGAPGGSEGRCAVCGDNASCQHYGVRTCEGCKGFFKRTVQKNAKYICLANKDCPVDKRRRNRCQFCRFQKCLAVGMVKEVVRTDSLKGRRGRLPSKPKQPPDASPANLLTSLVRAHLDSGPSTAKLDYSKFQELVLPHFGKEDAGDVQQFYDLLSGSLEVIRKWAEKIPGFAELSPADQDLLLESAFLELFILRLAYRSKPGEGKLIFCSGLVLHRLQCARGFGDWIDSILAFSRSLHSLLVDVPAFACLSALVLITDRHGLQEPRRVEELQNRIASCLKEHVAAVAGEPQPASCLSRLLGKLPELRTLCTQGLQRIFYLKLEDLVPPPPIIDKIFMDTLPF
The target of experiment [5] is Steroidogenic factor 1 (Homo sapiens) (UniProt Q13285). Put plainly: Selectivity interaction (Reporter gene assay) EUB0000571a NR5A1. Also on record: recommended concentration 1 uM.
Sequence of Steroidogenic factor 1 (Homo sapiens) (Q13285 whole entry): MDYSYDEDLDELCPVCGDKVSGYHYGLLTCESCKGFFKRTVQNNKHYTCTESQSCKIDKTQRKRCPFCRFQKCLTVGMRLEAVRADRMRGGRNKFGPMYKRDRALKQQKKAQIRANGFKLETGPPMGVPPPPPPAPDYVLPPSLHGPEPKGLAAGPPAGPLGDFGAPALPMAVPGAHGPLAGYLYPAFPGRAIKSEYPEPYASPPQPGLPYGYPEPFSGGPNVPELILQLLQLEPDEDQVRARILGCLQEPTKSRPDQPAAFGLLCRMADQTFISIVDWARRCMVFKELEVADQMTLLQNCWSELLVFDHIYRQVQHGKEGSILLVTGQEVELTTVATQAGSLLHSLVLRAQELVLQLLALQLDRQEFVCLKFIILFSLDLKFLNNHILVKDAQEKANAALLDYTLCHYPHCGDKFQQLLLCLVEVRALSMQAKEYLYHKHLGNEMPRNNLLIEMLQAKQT
Experiment [6] addresses T3, Alpha trans-inducing protein (Human alphaherpesvirus 1) (UniProt A0A5J6DW59). Put plainly: Selectivity interaction (Reporter gene assay) EUB0000571a UL48. Also on record: recommended concentration 1 uM.
The target in experiment [7] is T4, Retinoic acid receptor RXR-alpha (Homo sapiens) (UniProt P19793).
T4 sequence (whole entry): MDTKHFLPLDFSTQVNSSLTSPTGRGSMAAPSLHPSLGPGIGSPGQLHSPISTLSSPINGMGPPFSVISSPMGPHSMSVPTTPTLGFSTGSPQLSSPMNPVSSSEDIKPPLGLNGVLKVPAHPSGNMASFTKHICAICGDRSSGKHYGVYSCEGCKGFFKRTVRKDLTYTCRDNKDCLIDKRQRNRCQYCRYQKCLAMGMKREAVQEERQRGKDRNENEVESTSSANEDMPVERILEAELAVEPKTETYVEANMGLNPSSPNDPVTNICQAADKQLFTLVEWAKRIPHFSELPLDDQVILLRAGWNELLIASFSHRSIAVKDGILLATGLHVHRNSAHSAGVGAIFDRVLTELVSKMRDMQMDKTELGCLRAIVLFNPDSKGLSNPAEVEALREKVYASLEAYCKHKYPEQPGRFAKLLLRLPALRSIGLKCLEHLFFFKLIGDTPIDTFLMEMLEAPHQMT
Put plainly: Selectivity interaction (Reporter gene assay) EUB0000571a RXRA. Also on record: recommended concentration 1 uM. The conditions noted are these: reference bexarotene 1 uM, Selectivity number of off-targets 0.0, Selectivity number of targets 1.0, Source Knowledge inhouse.

For experiment [8], the target named is T1, Hepatocyte nuclear factor 4-alpha (Homo sapiens). Put plainly: Selectivity interaction (Reporter gene assay) EUB0000574a HNF4A. More on the design: recommended concentration 10 uM.
The target of experiment [9] is T2, Nuclear receptor subfamily 2 group C member 1 (Homo sapiens). Put plainly: Selectivity interaction (Reporter gene assay) EUB0000574a NR2C1. More on the design: recommended concentration 10 uM.
For experiment [10], the target named is Nuclear receptor subfamily 2 group E member 1 (Homo sapiens) (UniProt Q9Y466). Put plainly: Selectivity interaction (Reporter gene assay) EUB0000574a NR2E1. Also on record: recommended concentration 10 uM.
Experiment [11] concerns the target Nuclear receptor subfamily 4immunitygroup A member 1 (Homo sapiens) (UniProt P22736). Put plainly: Selectivity interaction (Reporter gene assay) EUB0000574a NR4A1. More on the design: recommended concentration 10 uM.
Experiment [12] deals with Steroidogenic factor 1 (Homo sapiens) (UniProt Q13285). Put plainly: Selectivity interaction (Reporter gene assay) EUB0000574a NR5A1. Also on record: recommended concentration 10 uM.
In experiment [13] the target is T3, Alpha trans-inducing protein (Human alphaherpesvirus 1). Put plainly: Selectivity interaction (Reporter gene assay) EUB0000574a UL48. Also on record: recommended concentration 10 uM.
Experiment [14] addresses T4, Retinoic acid receptor RXR-alpha (Homo sapiens). Put plainly: Selectivity interaction (Reporter gene assay) EUB0000574a RXRA. Also on record: recommended concentration 10 uM. Conditions: reference bexarotene 1 uM, Selectivity number of off-targets 0.0, Selectivity number of targets 1.0, Source Knowledge inhouse.
The target of experiment [15] is T5, Peroxisome proliferator-activated receptor gamma (Homo sapiens) (UniProt P37231).
T5 sequence (whole entry): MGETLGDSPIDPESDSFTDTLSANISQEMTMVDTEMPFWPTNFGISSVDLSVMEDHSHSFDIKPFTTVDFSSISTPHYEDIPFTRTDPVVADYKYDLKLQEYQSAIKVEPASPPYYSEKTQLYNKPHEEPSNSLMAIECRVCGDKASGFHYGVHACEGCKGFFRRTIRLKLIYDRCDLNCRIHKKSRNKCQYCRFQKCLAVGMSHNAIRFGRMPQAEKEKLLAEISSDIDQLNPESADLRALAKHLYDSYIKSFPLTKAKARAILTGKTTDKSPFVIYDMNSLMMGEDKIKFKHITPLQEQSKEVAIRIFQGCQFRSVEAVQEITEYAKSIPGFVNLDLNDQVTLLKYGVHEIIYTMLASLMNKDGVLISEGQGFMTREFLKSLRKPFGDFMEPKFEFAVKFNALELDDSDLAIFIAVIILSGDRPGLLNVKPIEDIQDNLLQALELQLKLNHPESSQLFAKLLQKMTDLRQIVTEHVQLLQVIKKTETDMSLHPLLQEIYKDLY
Put plainly: Selectivity interaction (Reporter gene assay) EUB0000581a PPARG. More on the design: recommended concentration 1 uM. Conditions: screened at recom. conc., Selectivity number of off-targets 1.0, Selectivity number of targets 19.0, Source Knowledge inhouse.

The target of experiment [16] is T1, Hepatocyte nuclear factor 4-alpha (Homo sapiens). Put plainly: Selectivity interaction (Reporter gene assay) EUB0000581a HNF4A. More on the design: recommended concentration 1 uM.
Experiment [17] concerns the target T2, Nuclear receptor subfamily 2 group C member 1 (Homo sapiens). Put plainly: Selectivity interaction (Reporter gene assay) EUB0000581a NR2C1. Also on record: recommended concentration 1 uM.
Experiment [18] has as its target Nuclear receptor subfamily 2 group E member 1 (Homo sapiens) (UniProt Q9Y466). Put plainly: Selectivity interaction (Reporter gene assay) EUB0000581a NR2E1. More on the design: recommended concentration 1 uM.
Experiment [19] deals with Nuclear receptor subfamily 4immunitygroup A member 1 (Homo sapiens) (UniProt P22736). Put plainly: Selectivity interaction (Reporter gene assay) EUB0000581a NR4A1. More on the design: recommended concentration 1 uM.
Experiment [20] has as its target Steroidogenic factor 1 (Homo sapiens) (UniProt Q13285). Put plainly: Selectivity interaction (Reporter gene assay) EUB0000581a NR5A1. Also on record: recommended concentration 1 uM.
Experiment [21] concerns the target T3, Alpha trans-inducing protein (Human alphaherpesvirus 1). Put plainly: Selectivity interaction (Reporter gene assay) EUB0000581a UL48. Also on record: recommended concentration 1 uM.
In experiment [22] the target is T4, Retinoic acid receptor RXR-alpha (Homo sapiens). Put plainly: Selectivity interaction (Reporter gene assay) EUB0000581a RXRA. More on the design: recommended concentration 1 uM. The conditions noted are these: reference bexarotene 1 uM, Selectivity number of off-targets 0.0, Selectivity number of targets 1.0, Source Knowledge inhouse.
Experiment [23] concerns the target T1, Hepatocyte nuclear factor 4-alpha (Homo sapiens). Put plainly: Selectivity interaction (Reporter gene assay) EUB0000572aCl HNF4A. Also on record: recommended concentration 3 uM.
Experiment [24] deals with T2, Nuclear receptor subfamily 2 group C member 1 (Homo sapiens). Put plainly: Selectivity interaction (Reporter gene assay) EUB0000572aCl NR2C1. More on the design: recommended concentration 3 uM. Conditions: screened at recom. conc., Selectivity number of off-targets 2.0, Selectivity number of targets 5.0, Source Knowledge inhouse.
Experiment [25] addresses Nuclear receptor subfamily 2 group E member 1 (Homo sapiens) (UniProt Q9Y466). Put plainly: Selectivity interaction (Reporter gene assay) EUB0000572aCl NR2E1. More on the design: recommended concentration 3 uM. Conditions: screened at recom. conc., Selectivity number of off-targets 2.0, Selectivity number of targets 5.0, Source Knowledge inhouse.
Experiment [26] has as its target Nuclear receptor subfamily 4immunitygroup A member 1 (Homo sapiens) (UniProt P22736). Put plainly: Selectivity interaction (Reporter gene assay) EUB0000572aCl NR4A1. Also on record: recommended concentration 3 uM.
The target of experiment [27] is Steroidogenic factor 1 (Homo sapiens) (UniProt Q13285). Put plainly: Selectivity interaction (Reporter gene assay) EUB0000572aCl NR5A1. More on the design: recommended concentration 3 uM.
For experiment [28], the target named is T3, Alpha trans-inducing protein (Human alphaherpesvirus 1). Put plainly: Selectivity interaction (Reporter gene assay) EUB0000572aCl UL48. More on the design: recommended concentration 3 uM.
In experiment [29] the target is T4, Retinoic acid receptor RXR-alpha (Homo sapiens). Put plainly: Selectivity interaction (Reporter gene assay) EUB0000572aCl RXRA. Also on record: recommended concentration 3 uM. Conditions: reference bexarotene 1 uM, Selectivity number of off-targets 0.0, Selectivity number of targets 1.0, Source Knowledge inhouse.

T3 sequence (A0A5J6DW59 as listed by the source): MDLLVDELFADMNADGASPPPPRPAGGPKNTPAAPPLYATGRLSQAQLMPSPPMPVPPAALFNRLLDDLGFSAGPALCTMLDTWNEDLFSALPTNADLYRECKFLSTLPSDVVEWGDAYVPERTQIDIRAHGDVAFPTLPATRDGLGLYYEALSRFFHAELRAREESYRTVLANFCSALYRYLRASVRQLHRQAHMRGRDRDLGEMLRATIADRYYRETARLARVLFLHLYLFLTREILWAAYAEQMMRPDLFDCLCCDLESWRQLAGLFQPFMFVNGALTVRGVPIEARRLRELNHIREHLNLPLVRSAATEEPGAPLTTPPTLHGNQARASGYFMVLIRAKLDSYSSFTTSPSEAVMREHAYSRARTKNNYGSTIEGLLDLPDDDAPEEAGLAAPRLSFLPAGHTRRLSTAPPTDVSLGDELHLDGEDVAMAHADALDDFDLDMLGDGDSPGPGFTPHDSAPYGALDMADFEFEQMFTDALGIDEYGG

With `COC(=O)C(Cc1ccc(OCCn2c(=O)sc3cc(C(=O)c4ccccc4)ccc32)cc1)C(=O)OC`, the Fold activation in experiment [1] came out at 1.06; in [2], 1.38; in [5], 1.22. The Remaining activity came to 0.849 in experiment [3] and 0.966 in experiment [4]. Besides, the P-value in experiment [6] is 0.0005. The same compound gave a Relative activation in experiment [7] of 0.67%.

For the compound `CO[C@H]1/C=C/O[C@@]2(C)Oc3c(C)c(O)c4c(O)c(c(/C=N/N5CCN(C)CC5)c(O)c4c3C2=O)NC(=O)/C(C)=C\C=C\[C@H](C)[C@H](O)[C@@H](C)[C@@H](O)[C@@H](C)[C@H](OC(C)=O)[C@@H]1C`, the Fold activation is 1.04 in experiment [8], 1.14 in experiment [9], 1.33 in experiment [10] and 1.04 in [11]. In [12], this compound yielded a Remaining activity of 0.952. For the same compound, the P-value in experiment [13] stood at 0.000527. In addition, in [14], the Relative activation came to 0.683%.

As for `CC(C)c1ccc(CC(=O)N2CCC[C@@H](c3cccc(OC(C)(C)C(=O)O)c3)C2)cc1`, the Fold activation amounted to 3.39 in experiment [15]; 1.11 in [16]; 1.13 in [17]; 1.08 in experiment [19]; 1.08 in [20]. For the same compound, in [18], the Remaining activity amounted to 0.846. This compound also gave a P-value in experiment [21] of 0.0017. The Relative activation in [22] was found to be 0.86%.

Turning to `O=C(O)Cc1cccc(OCCCN(Cc2cccc(C(F)(F)F)c2Cl)CC(c2ccccc2)c2ccccc2)c1`, the Fold activation in experiment [23] turned out to be 1.18; in experiment [24], 1.98; in experiment [25] it was 1.82; in experiment [26], 1.4; in experiment [27] it was 1.13. Also, the P-value in experiment [28] came to 2.13e-05. The compound also yielded a Relative activation in [29] of 0.674%.
